Consider one compound from article PMC1192819, “Molecular cloning and characterization of a nuclear androgen receptor activated by 11-ketotestosterone” (Reproductive biology and endocrinology : RB&E, 2005).

Assay [1] has as its target AR in stickleback kidney cytosolic fraction. Description: Saturation and Scatchard analysis, kidney cytosolic fraction. The assay is classed as binding, three-spined stickleback (Gasterosteus aculeatus). The following applies: overnight 4°C. The protocol: Aliquots (250 μl) of the nuclear or cytosolic preparations were added to each tube, the tubes were vortexed and incubated over night at 4°C. To stop the binding reaction, 250 μl DCC was added to each tube. The tubes were vortexed and the suspensions were incubated for 5 min at 4°C, before spinning at 3,000 × g at 4°C for 5 min. The supernatants were decanted into 7 ml scintillation vials, 5 ml of standard scintillation cocktail was added and the radioactivity in each sample was measured in a liquid scintillation counter (Beckman LS 6000SC, Beckman Instruments, Fullerton, CA). The procedure used for the expressed recombinant ARβ2 was modified as follows. […] The expressed proteins were diluted 1:100 and aliquots (100 μl) were added to each reaction tube. The tubes were vortexed and incubated over night at 4°C. To stop the binding reaction, 200 μl DCC was added to each tube. The tubes were vortexed and the suspension were incubated for 5 min at 4°C, before spinning at 3,000 × g at 4°C for 5 min. 250 μl of the supernatant was transferred into 5 ml scintillation vials and 4 ml of standard scintillation cocktail was added before the radioactivity in each sample was measured in a liquid scintillation counter (Wallac 1409, Wallac Oy, Turku, Finland).

The target in assay [2] is recombinant stickleback ARβ2 (Gasterosteus aculeatus, UniProt Q801Z2). The following applies: recombinant ARβ2, reticulocyte extract. How it is done:
The excised AR pBK CMV clones were digested with XbaI and EcoRI and the inserts were gel purified prior to ligation into the pCMV-TNT vector (Promega) between XbaI and EcoRI. […] AR was expressed by introducing the pCMV-TNT into the TNT coupled reticulocyte lysate system (Promega) according to the manufacturer's instructions. The size of the expressed products was determined by addition of S^35-methionin to the reticulocyte lysate system. The obtained protein suspension was analyzed on a denaturing 8% SDS PAGE and the sizes were determined using prestained SDS-PAGE broad range protein molecular weight standard (Bio-Rad) and a control luciferase protein of 62 kDa included in the reticulocyte lysate system (Promega). […]
Aliquots (250 μl) of the nuclear or cytosolic preparations were added to each tube, the tubes were vortexed and incubated over night at 4°C. […] The supernatants were decanted into 7 ml scintillation vials, 5 ml of standard scintillation cocktail was added and the radioactivity in each sample was measured in a liquid scintillation counter (Beckman LS 6000SC, Beckman Instruments, Fullerton, CA). […] 250 μl of the supernatant was transferred into 5 ml scintillation vials and 4 ml of standard scintillation cocktail was added before the radioactivity in each sample was measured in a liquid scintillation counter (Wallac 1409, Wallac Oy, Turku, Finland).

Assay [3] has as its system AR in three-spined stickleback kidney cytosolic extracts. The conditions noted are these: 4°C. How it is done: The reaction was terminated at different time-points ranging between 1 min and 24 h. The specific binding at each time-point was determined as described above.

Structures are written as SMILES.

recombinant stickleback ARβ2, sequence (Q801Z2 1-735): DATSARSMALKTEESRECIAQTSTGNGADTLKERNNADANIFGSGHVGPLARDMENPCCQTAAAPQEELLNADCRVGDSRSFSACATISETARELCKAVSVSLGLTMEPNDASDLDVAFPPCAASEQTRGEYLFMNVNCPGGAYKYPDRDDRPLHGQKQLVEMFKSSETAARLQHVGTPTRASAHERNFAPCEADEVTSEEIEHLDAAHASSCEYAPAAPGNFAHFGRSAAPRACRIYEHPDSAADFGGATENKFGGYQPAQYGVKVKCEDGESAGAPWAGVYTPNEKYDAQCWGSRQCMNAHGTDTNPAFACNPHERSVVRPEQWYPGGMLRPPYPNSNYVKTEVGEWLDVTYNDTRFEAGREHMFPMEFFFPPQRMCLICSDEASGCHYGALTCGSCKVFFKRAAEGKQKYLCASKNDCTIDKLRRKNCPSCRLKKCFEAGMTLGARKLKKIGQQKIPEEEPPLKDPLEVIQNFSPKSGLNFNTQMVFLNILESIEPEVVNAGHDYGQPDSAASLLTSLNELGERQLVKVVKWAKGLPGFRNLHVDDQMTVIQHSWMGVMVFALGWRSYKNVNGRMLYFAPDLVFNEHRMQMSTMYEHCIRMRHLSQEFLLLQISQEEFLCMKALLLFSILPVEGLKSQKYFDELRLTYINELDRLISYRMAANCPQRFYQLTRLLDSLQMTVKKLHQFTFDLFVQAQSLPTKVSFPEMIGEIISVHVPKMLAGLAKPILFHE

Compound `C[C@]12CCC(=O)C[C@@H]1CC[C@@H]1[C@@H]2CC[C@]2(C)[C@@H](O)CC[C@@H]12` [[^3H]-DHT] returned a Kd in assay [1] of 18.7 ± 3.21 nM. Besides, the Bmax in assay [2] worked out at 0.324 ± 0.04 pmol/mg protein. Moreover, in assay [3] (4 nM tracer), the “association t1/2” value is 3.3 min and the “time to reach binding equilibrium” value came out at 20 min. In assay [3] (100-fold excess unlabelled DHT), the “dissociation t1/2” value was found to be 80 min and the “time to complete dissociation” value is at most 8 h.
